{"source": "the OligoGym collection", "target": "SOD1", "conditions": "ASO", "note": "Several values for one entry are separate records, joined by “and”; a condition that tells them apart may be missing. Equal values may be shown once. After the bases stand the sugars from the 5' end (letter, count) and the backbone: PS all phosphorothioate, else s phosphorothioate and o phosphodiester by linkage. Methylation of C is not given here. e = 2'-O-(2-methoxyethyl) (MOE); k = constrained ethyl (cEt); d = 2'-deoxy (DNA)"}
{"sequence": "GTGATTTAAGTCTGGCA (sugars e2 k2 d8 k2 e3, PS)", "values": [{"measurement": "target mRNA inhibition", "setting": "HepG2, 5 µM", "result": 54, "unit": "%"}]}
{"sequence": "GTGTGCGGCCAATGATGCAA (sugars e5 d10 e5, PS)", "values": [{"measurement": "target mRNA inhibition", "setting": "HepG2, 5 µM", "result": 15, "unit": "%"}]}
{"sequence": "GTGTTTAATGTTTATC (sugars kekeddddddddekek, linkages s1 o3 s8 o1 s2)", "values": [{"measurement": "target mRNA inhibition", "setting": "A431, 0.12 µM", "result": 7, "unit": "%"}, {"measurement": "target mRNA inhibition", "setting": "A431, 0.6 µM", "result": 35, "unit": "%"}, {"measurement": "target mRNA inhibition", "setting": "A431, 3 µM", "result": 66, "unit": "%"}, {"measurement": "target mRNA inhibition", "setting": "A431, 15 µM", "result": 78, "unit": "%"}, {"measurement": "target mRNA inhibition", "setting": "HepG2, 0.222 µM", "result": 53, "unit": "%"}, {"measurement": "target mRNA inhibition", "setting": "HepG2, 0.667 µM", "result": 78, "unit": "%"}, {"measurement": "target mRNA inhibition", "setting": "HepG2, 2 µM", "result": 82, "unit": "%"}, {"measurement": "target mRNA inhibition", "setting": "HepG2, 6 µM", "result": 90, "unit": "%"}]}
{"sequence": "GTGTTTAATGTTTATCA (sugars e3 k2 d7 k2 e3, PS)", "values": [{"measurement": "target mRNA inhibition", "setting": "HepG2, 3 µM", "result": 37, "unit": "%"}]}
{"sequence": "GTGTTTAATGTTTATCAGGA (sugars e5 d10 e5, PS)", "values": [{"measurement": "target mRNA inhibition", "setting": "HepG2, 0.1875 µM", "result": 18, "unit": "%"}, {"measurement": "target mRNA inhibition", "setting": "HepG2, 0.75 µM", "result": 45, "unit": "%"}, {"measurement": "target mRNA inhibition", "setting": "HepG2, 3 µM", "result": 74, "unit": "%"}, {"measurement": "target mRNA inhibition", "setting": "HepG2, 5 µM", "result": 73, "unit": "%"}, {"measurement": "target mRNA inhibition", "setting": "HepG2, 12 µM", "result": 92, "unit": "%"}]}
{"sequence": "GTTTAATGTTTATCAG (sugars kekeddddddddekek, linkages s1 o3 s8 o1 s2)", "values": [{"measurement": "target mRNA inhibition", "setting": "A431, 0.12 µM", "result": 7, "unit": "%"}, {"measurement": "target mRNA inhibition", "setting": "A431, 0.6 µM", "result": 7, "unit": "%"}, {"measurement": "target mRNA inhibition", "setting": "A431, 3 µM", "result": 41, "unit": "%"}, {"measurement": "target mRNA inhibition", "setting": "A431, 15 µM", "result": 66, "unit": "%"}, {"measurement": "target mRNA inhibition", "setting": "HepG2, 0.222 µM", "result": 58, "unit": "%"}, {"measurement": "target mRNA inhibition", "setting": "HepG2, 0.667 µM", "result": 78, "unit": "%"}, {"measurement": "target mRNA inhibition", "setting": "HepG2, 2 µM", "result": 86, "unit": "%"}, {"measurement": "target mRNA inhibition", "setting": "HepG2, 6 µM", "result": 94, "unit": "%"}]}
{"sequence": "GTTTAATGTTTATCAGG (sugars e2 k2 d8 k2 e3, PS)", "values": [{"measurement": "target mRNA inhibition", "setting": "HepG2, 0.1875 µM", "result": 55, "unit": "%"}, {"measurement": "target mRNA inhibition", "setting": "HepG2, 0.75 µM", "result": 78, "unit": "%"}, {"measurement": "target mRNA inhibition", "setting": "HepG2, 3 µM", "result": 87, "unit": "%"}, {"measurement": "target mRNA inhibition", "setting": "HepG2, 5 µM", "result": 87, "unit": "%"}, {"measurement": "target mRNA inhibition", "setting": "HepG2, 12 µM", "result": 93, "unit": "%"}]}
{"sequence": "GTTTATCAGGATACATT (sugars e2 k2 d8 k2 e3, PS)", "values": [{"measurement": "target mRNA inhibition", "setting": "HepG2, 0.1875 µM", "result": 41, "unit": "%"}, {"measurement": "target mRNA inhibition", "setting": "HepG2, 0.75 µM", "result": 73, "unit": "%"}, {"measurement": "target mRNA inhibition", "setting": "HepG2, 3 µM", "result": 89, "unit": "%"}, {"measurement": "target mRNA inhibition", "setting": "HepG2, 4 µM", "result": 85, "unit": "%"}, {"measurement": "target mRNA inhibition", "setting": "HepG2, 12 µM", "result": "92% and 95%"}]}
{"sequence": "TAACAGATGAGTTAAGG (sugars e2 k2 d8 k2 e3, PS)", "values": [{"measurement": "target mRNA inhibition", "setting": "HepG2, 4 µM", "result": 68, "unit": "%"}]}
{"sequence": "TAACAGATGAGTTAAGG (sugars e2 k2 d9 k2 e2, PS)", "values": [{"measurement": "target mRNA inhibition", "setting": "HepG2, 0.1875 µM", "result": 21, "unit": "%"}, {"measurement": "target mRNA inhibition", "setting": "HepG2, 0.75 µM", "result": 64, "unit": "%"}, {"measurement": "target mRNA inhibition", "setting": "HepG2, 3 µM", "result": 85, "unit": "%"}, {"measurement": "target mRNA inhibition", "setting": "HepG2, 4 µM", "result": 80, "unit": "%"}, {"measurement": "target mRNA inhibition", "setting": "HepG2, 12 µM", "result": 96, "unit": "%"}]}
{"sequence": "TAACTGAGTTTTATAAAACT (sugars e5 d10 e5, PS)", "values": [{"measurement": "target mRNA inhibition", "setting": "HepG2, 5 µM", "result": 0, "unit": "%"}]}
{"sequence": "TAAGTCTGGCAAAATAC (sugars e2 k2 d8 k2 e3, PS)", "values": [{"measurement": "target mRNA inhibition", "setting": "HepG2, 5 µM", "result": 24, "unit": "%"}]}
{"sequence": "TAAGTCTGGCAAAATAC (sugars e2 k2 d9 k2 e2, PS)", "values": [{"measurement": "target mRNA inhibition", "setting": "HepG2, 5 µM", "result": 46, "unit": "%"}]}
{"sequence": "TAAGTCTGGCAAAATAC (sugars e3 k2 d7 k2 e3, PS)", "values": [{"measurement": "target mRNA inhibition", "setting": "HepG2, 3 µM", "result": 4, "unit": "%"}]}
{"sequence": "TAAGTGCCATACAGGGT (sugars e2 k2 d8 k2 e3, PS)", "values": [{"measurement": "target mRNA inhibition", "setting": "HepG2, 5 µM", "result": 26, "unit": "%"}]}
{"sequence": "TAAGTGCCATACAGGGTTTT (sugars e5 d10 e5, PS)", "values": [{"measurement": "target mRNA inhibition", "setting": "HepG2, 5 µM", "result": 13, "unit": "%"}]}
{"sequence": "TAATGTTTATCAGGAT (sugars kekeddddddddekek, linkages s1 o3 s8 o1 s2)", "values": [{"measurement": "target mRNA inhibition", "setting": "A431, 0.12 µM", "result": 0, "unit": "%"}, {"measurement": "target mRNA inhibition", "setting": "A431, 0.6 µM", "result": 15, "unit": "%"}, {"measurement": "target mRNA inhibition", "setting": "A431, 3 µM", "result": 17, "unit": "%"}, {"measurement": "target mRNA inhibition", "setting": "A431, 15 µM", "result": 48, "unit": "%"}]}
{"sequence": "TACAGCTAGCAGGATAA (sugars e2 k2 d8 k2 e3, PS)", "values": [{"measurement": "target mRNA inhibition", "setting": "HepG2, 0.1875 µM", "result": 35, "unit": "%"}, {"measurement": "target mRNA inhibition", "setting": "HepG2, 0.75 µM", "result": 70, "unit": "%"}, {"measurement": "target mRNA inhibition", "setting": "HepG2, 3 µM", "result": 90, "unit": "%"}, {"measurement": "target mRNA inhibition", "setting": "HepG2, 4 µM", "result": "85% and 77%"}, {"measurement": "target mRNA inhibition", "setting": "HepG2, 12 µM", "result": "91% and 97%"}]}
{"sequence": "TACAGGGTTTTTATTCA (sugars e2 k2 d9 k2 e2, PS)", "values": [{"measurement": "target mRNA inhibition", "setting": "HepG2, 5 µM", "result": 31, "unit": "%"}]}
{"sequence": "TACAGTGTTTAATGTTT (sugars e3 k2 d7 k2 e3, PS)", "values": [{"measurement": "target mRNA inhibition", "setting": "HepG2, 3 µM", "result": 30, "unit": "%"}]}
{"sequence": "TACAGTGTTTAATGTTTA (sugars e5 d8 e5, linkages s1 o3 s9 o2 s2)", "values": [{"measurement": "target mRNA inhibition", "setting": "A431, 0.12 µM", "result": 3, "unit": "%"}, {"measurement": "target mRNA inhibition", "setting": "A431, 0.6 µM", "result": 0, "unit": "%"}, {"measurement": "target mRNA inhibition", "setting": "A431, 3 µM", "result": 1, "unit": "%"}, {"measurement": "target mRNA inhibition", "setting": "A431, 15 µM", "result": 20, "unit": "%"}, {"measurement": "target mRNA inhibition", "setting": "HepG2, 0.222 µM", "result": 13, "unit": "%"}, {"measurement": "target mRNA inhibition", "setting": "HepG2, 0.667 µM", "result": 46, "unit": "%"}, {"measurement": "target mRNA inhibition", "setting": "HepG2, 2 µM", "result": 70, "unit": "%"}, {"measurement": "target mRNA inhibition", "setting": "HepG2, 6 µM", "result": 57, "unit": "%"}]}
{"sequence": "TACATTTCTACAGCTA (sugars ekddddddddekekee, linkages s1 o1 s8 o3 s2)", "values": [{"measurement": "target mRNA inhibition", "setting": "A431, 0.12 µM", "result": 37, "unit": "%"}, {"measurement": "target mRNA inhibition", "setting": "A431, 0.6 µM", "result": 0, "unit": "%"}, {"measurement": "target mRNA inhibition", "setting": "A431, 3 µM", "result": 22, "unit": "%"}, {"measurement": "target mRNA inhibition", "setting": "A431, 15 µM", "result": 12, "unit": "%"}, {"measurement": "target mRNA inhibition", "setting": "HepG2, 0.222 µM", "result": 36, "unit": "%"}, {"measurement": "target mRNA inhibition", "setting": "HepG2, 0.667 µM", "result": 69, "unit": "%"}, {"measurement": "target mRNA inhibition", "setting": "HepG2, 2 µM", "result": 83, "unit": "%"}, {"measurement": "target mRNA inhibition", "setting": "HepG2, 6 µM", "result": 95, "unit": "%"}]}
